# Like-named read-outs stand apart in the source and are kept apart here. Starred links: 1 amine or outer side, 2 acyl side, 3 side chain; linkers in the order of their positions; H or OH if unused. Non-standard residues stand in square brackets, D forms with d. Groups on a side chain read outwards from the residue. *: point of attachment. C18 diacid = O=C(O)CCCCCCCCCCCCCCCCC(=O)*; Phe(4-CN) = N#Cc1ccc(C[C@H](N)C(=O)O)cc1; γGlu = O=C(O)[C@H](CCC(=O)[*:2])N[*:1]; αMe4Pal = C[C@](N)(Cc1ccncc1)C(=O)O; αMeY = C[C@](N)(Cc1ccc(O)cc1)C(=O)O; 4Pal = N[C@@H](Cc1ccncc1)C(=O)O; αMeL = CC(C)C[C@](C)(N)C(=O)O; αMeS = C[C@](N)(CO)C(=O)O; Orn = NCCC[C@H](N)C(=O)O; AEEA = NCCOCCOCC(=O)O; Aib = CC(C)(N)C(=O)O
# Columns and labels:
# Format in all cases: cell-based
# hGLP-1R [1] = biological target: T1, hGLP-1R (Homo sapiens, UniProt P43220); assay: Functional cAMP activation in the presence of 0.1% casein (no HSA); details: in the presence of 0.1% casein (no HSA); geometric mean; read-out: Relative cAMP EC50, hGLP-1R;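 note: intracellular cAMP rise after 30 min at 37 °C read by HTRF, normalized between buffer only (0%) and maximal control ligand (100%), four-parameter variable-slope fit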
# hGIPR [2] = biological target: T2, hGIPR (Homo sapiens, UniProt P48546); assay: Functional cAMP activity in the presence of 1% HSA; details: read-out: cAMP Rel EC50, hGIPR
# T2 sequence (P48546 22-466): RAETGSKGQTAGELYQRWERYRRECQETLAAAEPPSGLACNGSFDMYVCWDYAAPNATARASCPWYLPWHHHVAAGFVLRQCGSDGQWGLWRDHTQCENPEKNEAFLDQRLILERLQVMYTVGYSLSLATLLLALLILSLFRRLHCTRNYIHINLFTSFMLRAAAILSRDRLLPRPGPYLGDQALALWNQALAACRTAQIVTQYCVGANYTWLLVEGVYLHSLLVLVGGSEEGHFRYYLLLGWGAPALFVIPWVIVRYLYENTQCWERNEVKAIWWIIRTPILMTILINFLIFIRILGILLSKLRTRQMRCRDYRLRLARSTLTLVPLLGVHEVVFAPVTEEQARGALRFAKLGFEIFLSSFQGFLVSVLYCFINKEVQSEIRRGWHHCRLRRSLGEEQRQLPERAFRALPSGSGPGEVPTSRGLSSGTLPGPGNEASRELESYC
# hGLP-1R [3] = biological target: T1, hGLP-1R; assay: Functional cAMP activity in the presence of 1% HSA; details: read-out: cAMP Rel EC50, hGLP-1R
# hGIPR [4] = biological target: T2, hGIPR; assay: Functional cAMP activation in the presence of 0.1% casein (no HSA); details: in the presence of 0.1% casein (no HSA); geometric mean; read-out: Relative cAMP EC50, hGIPR;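 note: intracellular cAMP rise after 30 min at 37 °C read by HTRF against a standard curve, scaled between buffer alone (0%) and top control ligand concentration (100%), four-parameter fit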
# human GcgR = human GcgR (Homo sapiens, UniProt P47871); assay: Functional cAMP activity in the presence of 1% HSA; details: read-out: cAMP Rel EC50, hGcgR
# hGcgR = hGcgR (Homo sapiens, UniProt P47871); assay: Functional cAMP activation in the presence of 0.1% casein (no HSA); details: in the presence of 0.1% casein (no HSA); geometric mean; read-out: Relative cAMP EC50, hGcgR;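 note: intracellular cAMP rise after 30 min at 37 °C, read by HTRF against a cAMP standard curve, scaled from buffer only (0%) to maximal control ligand response (100%)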
# [5] = HEK-293 clonal cell line, in the presence of 1% HSA, geometric mean of relative EC50
# T1 sequence (P43220 24-463): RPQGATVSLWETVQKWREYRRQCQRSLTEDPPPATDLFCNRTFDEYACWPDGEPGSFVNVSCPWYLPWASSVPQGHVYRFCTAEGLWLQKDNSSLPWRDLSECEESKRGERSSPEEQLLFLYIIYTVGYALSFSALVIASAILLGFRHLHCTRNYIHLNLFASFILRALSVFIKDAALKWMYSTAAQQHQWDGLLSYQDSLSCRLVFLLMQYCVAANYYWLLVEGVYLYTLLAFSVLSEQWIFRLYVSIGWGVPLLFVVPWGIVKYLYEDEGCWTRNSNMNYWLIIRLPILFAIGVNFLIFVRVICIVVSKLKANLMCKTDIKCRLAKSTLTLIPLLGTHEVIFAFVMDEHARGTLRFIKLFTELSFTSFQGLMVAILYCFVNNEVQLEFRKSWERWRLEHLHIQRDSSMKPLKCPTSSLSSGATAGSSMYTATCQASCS
# Chain of human GcgR (P47871 26-477): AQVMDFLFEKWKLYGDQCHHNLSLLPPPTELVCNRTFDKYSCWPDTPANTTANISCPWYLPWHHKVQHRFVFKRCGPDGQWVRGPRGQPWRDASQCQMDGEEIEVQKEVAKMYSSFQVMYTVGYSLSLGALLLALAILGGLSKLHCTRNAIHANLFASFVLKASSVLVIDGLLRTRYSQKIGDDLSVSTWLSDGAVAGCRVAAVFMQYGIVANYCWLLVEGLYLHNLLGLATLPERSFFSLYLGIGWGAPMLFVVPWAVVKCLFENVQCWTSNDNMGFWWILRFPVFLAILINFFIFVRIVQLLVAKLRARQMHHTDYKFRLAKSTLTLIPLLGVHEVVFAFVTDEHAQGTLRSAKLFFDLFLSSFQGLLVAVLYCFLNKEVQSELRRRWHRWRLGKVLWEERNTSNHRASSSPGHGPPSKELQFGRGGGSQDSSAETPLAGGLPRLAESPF
# Chain of hGcgR (P47871 26-477): as above
substance,measurement,setting,value
H-Y[Aib]QGTFTSD[4Pal]S[Orn][αMeL]LD[Orn]K([γGlu-γGlu-C18 diacid])AQ[αMe4Pal][Orn]FIE[αMeY]LLAGGPSSGAPPPSGSEE-NH2 [Example 997],EC50,hGLP-1R [1],20.7 nM
same,EC50,hGIPR [2]; [5],27.8 nM
same,EC50,hGLP-1R [3]; [5],1880 nM
same,EC50,hGIPR [4],0.373 nM
same,EC50,human GcgR; [5],527 nM
same,EC50,hGcgR,5.01 nM
H-Y[Aib]QGTFTSD[4Pal]S[Orn][αMeL]LD[Orn]K([γGlu-γGlu-γGlu-C18 diacid])AQ[αMe4Pal]AFIEYLIE[Aib]GPSSGAPPPSGSE-NH2 [Example 943],EC50,hGLP-1R [1],3.58 nM
same,EC50,hGIPR [2],23.1 nM
same,EC50,hGLP-1R [3],382 nM
same,EC50,hGIPR [4],0.233 nM
same,EC50,human GcgR,960 nM
same,EC50,hGcgR,6.58 nM
H-Y[Aib]QGTFTSD[4Pal][αMeS]I[αMeL]LD[Orn]K([dE-γGlu-C18 diacid])AQ[αMe4Pal]QFIQ[αMeY]LIE[Aib]GPSSGAPPPSGGGE-NH2 [Example 1136],EC50,hGLP-1R [1],0.453 nM
same,EC50,hGIPR [2],0.949 nM
same,EC50,hGLP-1R [3],39.2 nM
same,EC50,hGIPR [4],0.0131 nM
same,EC50,human GcgR,121 nM
same,EC50,hGcgR,1.26 nM
H-Y[Aib]QGTFTSD[4Pal][αMeS]Q[αMeL]LD[Orn]K([dE-γGlu-C18 diacid])AQ[αMe4Pal]QFIE[αMeY]LIA[Aib]GPSSGAPPPSGGGE-NH2 [Example 1185],EC50,hGLP-1R [1],0.762 nM
same,EC50,hGIPR [2],2.31 nM
same,EC50,hGLP-1R [3],66.1 nM
same,EC50,hGIPR [4],0.0266 nM
same,EC50,human GcgR,206 nM
same,EC50,hGcgR,1.64 nM
H-Y[Aib]QGTFTSD[4Pal][αMeS]Q[αMeL]LD[Orn]K([dE-γGlu-C18 diacid])AQ[αMe4Pal]QFIE[αMeY]LIA[Aib]GPSSGEPPPSGGGE-NH2 [Example 1182],EC50,hGLP-1R [1],0.797 nM
same,EC50,hGIPR [2],2.73 nM
same,EC50,hGLP-1R [3],80.4 nM
same,EC50,hGIPR [4],0.0316 nM
same,EC50,human GcgR,172 nM
same,EC50,hGcgR,1.24 nM
H-Y[Aib]QGTFTSD[4Pal][αMeS]Q[αMeL]LD[Orn]K([dE-γGlu-C18 diacid])AQ[αMe4Pal]QFIE[αMeY]LIE[Aib]GPSSGAPPPSGGGE-NH2 [Example 1187],EC50,hGLP-1R [1],1.06 nM
same,EC50,hGIPR [2],7.11 nM
same,EC50,hGLP-1R [3],154 nM
same,EC50,hGIPR [4],0.0648 nM
same,EC50,human GcgR,370 nM
same,EC50,hGcgR,1.81 nM
H-Y[Aib]QGTFTSD[4Pal][αMeS]Q[αMeL]LD[Orn]K([dE-γGlu-C18 diacid])AQ[αMe4Pal]QFIQ[αMeY]LIAGGPSSGEPPPSGGGE-NH2 [Example 1133],EC50,hGLP-1R [1],0.768 nM
same,EC50,hGIPR [2],4.24 nM
same,EC50,hGLP-1R [3],47.8 nM
same,EC50,hGIPR [4],0.0719 nM
same,EC50,human GcgR,216 nM
same,EC50,hGcgR,2.95 nM
H-Y[Aib]QGTFTSD[4Pal][αMeS]Q[αMeL]LD[Orn]K([dE-γGlu-C18 diacid])AQ[αMe4Pal]QFIQ[αMeY]LIE[Aib]GPSSGAPPPSGGGE-NH2 [Example 1186],EC50,hGLP-1R [1],0.594 nM
same,EC50,hGIPR [2],3.17 nM
same,EC50,hGLP-1R [3],52.1 nM
same,EC50,hGIPR [4],0.0404 nM
same,EC50,human GcgR,164 nM
same,EC50,hGcgR,1.46 nM
H-Y[Aib]QGTFTSD[4Pal][αMeS]Q[αMeL]LD[Orn]K([dE-γGlu-C18 diacid])AQ[αMe4Pal]QFIQ[αMeY]LIE[Aib]GPSSGEPPPSGGGE-NH2 [Example 1183],EC50,hGLP-1R [1],0.769 nM
same,EC50,hGIPR [2],3.16 nM
same,EC50,hGLP-1R [3],53.6 nM
same,EC50,hGIPR [4],0.0484 nM
same,EC50,human GcgR,127 nM
same,EC50,hGcgR,1.38 nM
H-Y[Aib]QGTFTSD[4Pal][αMeS]Q[αMeL]LD[Orn]K([dE-γGlu-C18 diacid])AQ[αMe4Pal]QFIQ[αMeY]LLE[Aib]GPSSGAPPPSGGGE-NH2 [Example 1138],EC50,hGLP-1R [1],1.93 nM
same,EC50,hGIPR [2],3.4 nM
same,EC50,hGLP-1R [3],164 nM
same,EC50,hGIPR [4],0.0491 nM
same,EC50,human GcgR,72.8 nM
same,EC50,hGcgR,1.01 nM
H-Y[Aib]QGTFTSD[Phe(4-CN)]S[Orn][αMeL]LDKK([AEEA-AEEA-γGlu-C18 diacid])AQ[Aib]AFIEYLLE[Aib]GPSSGAPPPSGS-NH2 [Example 178],EC50,hGLP-1R [1],4.01 nM
same,EC50,hGIPR [2],47.3 nM
same,EC50,hGLP-1R [3],397 nM
same,EC50,hGIPR [4],0.34 nM
same,EC50,human GcgR,816 nM
same,EC50,hGcgR,7.29 nM
H-Y[Aib]QGTFTSD[Phe(4-CN)]S[Orn][αMeL]LDKK([AEEA-γGlu-C18 diacid])AQ[Aib]AFIEYLLE[Aib]GHSSGAPPPSGS-NH2 [Example 190],EC50,hGLP-1R [1],1.41 nM
same,EC50,hGIPR [2],59.4 nM
same,EC50,hGLP-1R [3],172 nM
same,EC50,hGIPR [4],0.306 nM
same,EC50,human GcgR,331 nM
same,EC50,hGcgR,2.95 nM

# From US20240270821A1, “GIP/GLP1/GCG TRI-RECEPTOR AGONISTS AND USES THEREOF” (priority 2023, published 2024)
